This note sets out measurements from patent US8524902B2, “[1,2,4]triazolo[4,3-f]pteridines useful as inhibitors of protein kinases” (Vertex Pharmaceuticals Incorporated, priority 2006, dated 2013).

The structures appear in SMILES notation. Where only a bound is given, the exact number is not on record here.

The experiment deals with T1, Plk1 (Homo sapiens, UniProt P53350).
T1 construct: in the presence of 15 nM Plk1 (A20-K338)
T1 sequence (P53350 20-338): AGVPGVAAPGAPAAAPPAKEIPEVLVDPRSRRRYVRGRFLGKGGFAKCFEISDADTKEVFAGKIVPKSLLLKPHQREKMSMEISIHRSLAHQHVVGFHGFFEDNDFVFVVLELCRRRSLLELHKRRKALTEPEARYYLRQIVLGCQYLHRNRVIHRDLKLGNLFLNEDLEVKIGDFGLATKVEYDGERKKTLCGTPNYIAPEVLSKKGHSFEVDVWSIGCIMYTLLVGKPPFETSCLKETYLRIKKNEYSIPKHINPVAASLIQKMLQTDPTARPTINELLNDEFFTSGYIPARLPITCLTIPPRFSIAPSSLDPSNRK
Put plainly: Plk1 inhibition assay (radioactive-phosphate incorporation). Type of experiment: biochemical. The note with it: Ki(app) from [γ-33P]ATP incorporation, 25° C. The method, then: Compounds of the present invention may be evaluated as inhibitors of human PLK kinase using the following assays.
Compounds were screened for their ability to inhibit Plk1 using a radioactive-phosphate incorporation assay. Assays were carried out in a mixture of 25 mM HEPES (pH 7.5), 10 mM MgCl2, and 1 mM DTT. Final substrate concentrations were 50 μM [γ-33P]ATP (136 mCi 33P ATP/mmol ATP, Amersham Pharmacia Biotech/Sigma Chemicals) and 10 μM peptide (SAM68 protein Δ332-443). Assays were carried out at 25° C. in the presence of 15 nM Plk1 (A20-K338). An assay stock buffer solution was prepared containing all of the reagents listed above, with the exception of ATP and the test compound of interest. 30 μL of the stock solution was placed in a 96 well plate followed by addition of 2 μL of DMSO stock containing serial dilutions of the test compound (typically starting from a final concentration of 10 μM with 2-fold serial dilutions) in duplicate (final DMSO concentration 5%). The plate was pre-incubated for 10 minutes at 25° C. and the reaction initiated by addition of 8 μL [γ33P]ATP (final concentration 50 μM).
The reaction was stopped after 60 minutes by the addition of 100 μL 0.14M phosphoric acid. A multiscreen phosphocellulose filter 96-well plate (Millipore, Cat no. MAPHN0B50) was pretreated with 100 μL 0.2M phosphoric acid prior to the addition of 125 μL of the stopped assay mixture. The plate was washed with 4×200 μL 0.2M phosphoric acid. After drying, 100 μL Optiphase ‘SuperMix’ liquid scintillation cocktail (Perkin Elmer) was added to the well prior to scintillation counting (1450 Microbeta Liquid Scintillation Counter, Wallac).
After removing mean background values for all of the data points, Ki(app) data were calculated from non-linear regression analysis of the initial rate data using the Prism software package (GraphPad Prism version 3.0cx for Macintosh, GraphPad Software, San Diego Calif., USA).
Compounds were screened for their ability to inhibit Plk1 using a radioactive-phosphate incorporation assay. Assays were carried out in a mixture of 25 mM HEPES (pH 7.5), 10 mM MgCl2, 0.1% BSA, and 2 mM DTT. Final substrate concentrations were 150 μM (350 μM for determining values of <1 nM) [γ-33P]ATP (115 mCi 33P ATP/mmol ATP, Amersham Pharmacia Biotech/Sigma Chemicals) and 300 μM (450 μM for determining values of <1 nM) peptide (KKKISDELMDATFADQEAK) SEQ. ID NO. 1. Assays were carried out at 25° C. in the presence of 4 nM (1 nM for determining values of <1 nM) Plk1. An assay stock buffer solution was prepared containing all of the reagents listed above, with the exception of ATP and the test compound of interest. 30 μL of the stock solution was placed in a 96 well plate followed by addition of 2 μL of DMSO stock containing serial dilutions of the test compound (typically starting from a final concentration of 10 μM with 2-fold serial dilutions) in duplicate (final DMSO concentration 5%). The plate was pre-incubated for 10 minutes at 25° C. and the reaction initiated by addition of 8 μl [γ-33P]ATP (final concentration 150 μM (350 μM for determining values of <1 nM))).
The reaction was stopped after 90 minutes (240 minutes for determining values of <1 nM) by the addition of 100 μL 0.14M phosphoric acid. A multiscreen phosphocellulose filter 96-well plate (Millipore, Cat no. MAPHN0B50) was pretreated with 100 μL 0.2M phosphoric acid prior to the addition of 125 μL of the stopped assay mixture. The plate was washed with 4×200 μL 0.2M phosphoric acid. After drying, 100 μL Optiphase ‘SuperMix’ liquid scintillation cocktail (Perkin Elmer) was added to the well prior to scintillation counting (1450 Microbeta Liquid Scintillation Counter, Wallac).
Regarding `CC[C@@H]1c2nncn2-c2cnc(Nc3cccnc3)nc2N1C1CCCC1` [Compound I-25, (R)-5-cyclopentyl-4-ethyl-N-(pyridin-3-yl)-4,5-dihydro-[1,2,4]triazolo[4,3-f]pteridin-7-amine], the Ki was less than 10 nM.
As for `CC[C@@H]1c2nncn2-c2cnc(Nc3ccc(C(=O)NC)cc3OC)nc2N1C1CCC1` [Compound I-29, (R)-4-(5-cyclobutyl-4-ethyl-4,5-dihydro-[1,2,4]triazolo[4,3-f]pteridin-7-ylamino)-3-methoxy-N-methylbenzamide], the Ki is less than 10 nM.
The figure for `CC[C@@H]1c2nncn2-c2cnc(Nc3ccc(C(=O)NC)cc3COC)nc2N1C1CCCC1` [Compound I-30, (R)-4-(5-cyclopentyl-4-ethyl-4,5-dihydro-[1,2,4]triazolo[4,3-f]pteridin-7-ylamino)-3-(methoxymethyl)-N-methylbenzamide] is less than 10 nM; for `CC[C@@H]1c2nncn2-c2cnc(NCc3ccccc3)nc2N1C1CCCC1` [Compound I-31, (R)—N-benzyl-5-cyclopentyl-4-ethyl-4,5-dihydro-[1,2,4]triazolo[4,3-f]pteridin-7-amine] it is 10 to 100 nM.
Next, `CC[C@@H]1c2nncn2-c2cnc(Nc3ccc(N4CCN(C)CC4)cc3)nc2N1C1CCCC1` [Compound I-32, (R)-5-cyclopentyl-4-ethyl-N-(4-(4-methylpiperazin-1-yl)phenyl)-4,5-dihydro-[1,2,4]triazolo[4,3-f]pteridin-7-amine]: less than 10 nM.
With `CC[C@@H]1c2nncn2-c2cnc(Nc3ccc(OC(F)F)cc3)nc2N1C1CCCC1` [Compound I-33, (R)-5-cyclopentyl-N-(4-(difluoromethoxy)phenyl)-4-ethyl-4,5-dihydro-[1,2,4]triazolo[4,3-f]pteridin-7-amine], the Ki is less than 10 nM.
`CC[C@@H]1c2nncn2-c2cnc(Nc3ccc(N4CCOCC4)cc3)nc2N1C1CCCC1` [Compound I-34, (R)-5-cyclopentyl-4-ethyl-N-(4-morpholinophenyl)-4,5-dihydro-[1,2,4]triazolo[4,3-f]pteridin-7-amine]: the Ki was less than 10 nM.
Next, `CC[C@@H]1c2nncn2-c2cnc(Nc3ccc(F)cc3)nc2N1C1CCCC1` [Compound I-35, (R)-5-cyclopentyl-4-ethyl-N-(4-fluorophenyl)-4,5-dihydro-[1,2,4]triazolo[4,3-f]pteridin-7-amine]: less than 10 nM; `CC[C@@H]1c2nncn2-c2cnc(Nc3ccc(-n4cccn4)cc3)nc2N1C1CCCC1` [Compound I-39, (R)—N-(4-(1H-pyrazol-1-yl)phenyl)-5-cyclopentyl-4-ethyl-4,5-dihydro-[1,2,4]triazolo[4,3-f]pteridin-7-amine]: less than 10 nM.
Next, `CC[C@@H]1c2nncn2-c2cnc(Nc3ccc(C(F)(F)F)nc3)nc2N1C1CCCC1` [Compound I-40, (R)-5-cyclopentyl-4-ethyl-N-(6-(trifluoromethyl)pyridin-3-yl)-4,5-dihydro-[1,2,4]triazolo[4,3-f]pteridin-7-amine]: 10 to 100 nM; `CC[C@@H]1c2nncn2-c2cnc(Nc3ccc(N4CCN(C)CC4)nc3)nc2N1C1CCCC1` [Compound I-41, (R)-5-cyclopentyl-4-ethyl-N-(6-(4-methylpiperazin-1-yl)pyridin-3-yl)-4,5-dihydro-[1,2,4]triazolo[4,3-f]pteridin-7-amine]: less than 10 nM; `CC[C@@H]1c2nncn2-c2cnc(Nc3ccc(N4CCCC4)cc3)nc2N1C1CCCC1` [Compound I-42, (R)-5-cyclopentyl-4-ethyl-N-(4-(pyrrolidin-1-yl)phenyl)-4,5-dihydro-[1,2,4]triazolo[4,3-f]pteridin-7-amine]: less than 10 nM.
